Counter-ions that a name gives are not always drawn.
Experiments:
[1] = target: α1-adrenoceptors (α1-ARs), rat cerebral cortex; test: Radioligand binding assay with [3H]-prazosin, affinity for α1-ARs; settings: three independent experiments in duplicates, read-out: α1-adrenoceptor affinity Ki
Procedure: In the first step, all synthesized compounds (1–15) were tested in vitro for their affinity for α1-ARs on rat cerebral cortex by the radioligand binding assay using [^3H]-prazosin as a specific radioligand.
The affinity for α1-ARs was determined by radioligand binding assay on rat cerebral cortex using [3H]-prazosin as a specific radioligand. The brains were homogenized in 20 volumes of an ice-cold 50 mM Tris-HCl buffer (pH 7.6) and were centrifuged (MPW Med. Instruments, Warsaw, Poland) at 20,000× g for 20 min (0–4 °C). The cell pellet was resuspended in the Tris-HCl buffer and centrifuged again. Radioligand-binding assay was performed in plates (MultiScreen/Millipore, Burlington, MA, USA). The final incubation mixture (final volume 300 μL) consisted of 240 μL of the membrane suspension, 30 μL of [3H]-Prazosin (0.2 nM) solution, and 30 μL of the buffer containing seven to eight concentrations (10^−11 to 10^−4 M) of the tested compounds. For measuring the unspecific binding, phentolamine, 10 μM (in the case of [3H]-Prazosin) was applied. The incubation was terminated by rapid filtration over glass fiber filters (Whatman GF/C, Sigma-Aldrich) using a vacuum manifold (Millipore). The filters were then washed twice with the assay buffer and placed in scintillation vials with a liquid-scintillation cocktail. Radioactivity was measured in a WALLAC 1409 DSA liquid-scintillation counter (BioSurplus, San Diego, CA, USA).
(§1) All statistics were performed using GraphPad Prism, Version 6.0 (GraphPad Software, San Diego, CA, USA). In the radioligand binding study, data were analyzed by a one-site curve-fitting equation, and inhibition constants (Ki) values were calculated via the Cheng-Prusoff equation [63]. In functional studies, data were analyzed using a sigmoidal dose-response (variable slope) equation. Arterial blood pressure data were analyzed using a two-way ANOVA with Sidak’s post-hoc test for multiple comparisons. A p < 0.05 was considered statistically significant.

[2] = target: T1, human adrenergic receptor α1B (Homo sapiens, UniProt P35368); test: Intrinsic activity, aequorin luminescence functional assay at α1B-AR; type: cell-based; settings: for α1B-AR Profile: agonist/antagonist profile; for IC50: cells expressing aequorin and human α1B, against phenylephrine, means of three independent experiments in duplicates; for Selectivity Ratio α1A/α1B: selectivity for α1B-AR (IC50(α1A-AR)/IC50(α1B-AR))
T1 sequence (P35368 1-520): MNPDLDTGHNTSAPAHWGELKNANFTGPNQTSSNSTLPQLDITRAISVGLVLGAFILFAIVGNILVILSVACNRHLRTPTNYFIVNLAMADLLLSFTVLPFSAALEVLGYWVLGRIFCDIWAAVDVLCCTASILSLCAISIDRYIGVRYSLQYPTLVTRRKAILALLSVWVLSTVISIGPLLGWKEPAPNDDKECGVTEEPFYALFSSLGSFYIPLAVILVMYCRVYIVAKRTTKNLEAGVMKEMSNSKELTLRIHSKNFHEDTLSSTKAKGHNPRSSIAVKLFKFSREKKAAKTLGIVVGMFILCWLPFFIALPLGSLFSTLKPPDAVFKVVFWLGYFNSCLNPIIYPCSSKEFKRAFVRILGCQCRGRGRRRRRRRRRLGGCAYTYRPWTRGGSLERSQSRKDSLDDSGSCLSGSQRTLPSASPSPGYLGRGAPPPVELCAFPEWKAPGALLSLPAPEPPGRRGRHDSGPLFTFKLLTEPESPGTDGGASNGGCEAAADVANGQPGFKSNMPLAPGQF
Procedure: (§2) The subtype selectivity for α1A and α1B was calculated as IC50(α1B-AR)/IC50(α1A-AR) and IC50(α1A-AR)/IC50(α1B-AR) ratio, respectively.
(§3) Intrinsic activity at the α1-AR subtypes studies were performed using the cells expressing mitochondrially-targeted aequorin and one of the human adrenergic receptor α1A or α1B (PerkinElmer, Boston, MA, USA), according to the manufacturer’s instructions. For measurement, frozen cells were thawed and re-suspended in 10 mL of assay buffer containing 5 μM “Coelenterazine h”. This cell suspension was put in a 10 mL Falcon tube, fixed onto a rotating heel, and incubated overnight at rt in the dark (8 rpm; 45° angle). Cells were diluted with Assay Buffer to 5000 cells/20 μL. […] The light emitted was recorded for 20 s. Cells with antagonists were incubated for 15 min at room temperature. […] Luminescence was measured using the multidetection microplate reader (POLARstar Omega, BMG LABTECH, Ortenberg, Germany).
as §1

[3] = target: T2, human adrenergic receptor α1A (Homo sapiens, UniProt P35348); test: Intrinsic activity, aequorin luminescence functional assay at α1A-AR; type: cell-based; settings: for α1A-AR Profile: agonist/antagonist profile; for IC50: cells expressing aequorin and human α1A, against phenylephrine, means of three independent experiments in duplicates; for Selectivity Ratio α1B/α1A: selectivity for α1A-AR (IC50(α1B-AR)/IC50(α1A-AR))
T2 sequence (P35348 1-466): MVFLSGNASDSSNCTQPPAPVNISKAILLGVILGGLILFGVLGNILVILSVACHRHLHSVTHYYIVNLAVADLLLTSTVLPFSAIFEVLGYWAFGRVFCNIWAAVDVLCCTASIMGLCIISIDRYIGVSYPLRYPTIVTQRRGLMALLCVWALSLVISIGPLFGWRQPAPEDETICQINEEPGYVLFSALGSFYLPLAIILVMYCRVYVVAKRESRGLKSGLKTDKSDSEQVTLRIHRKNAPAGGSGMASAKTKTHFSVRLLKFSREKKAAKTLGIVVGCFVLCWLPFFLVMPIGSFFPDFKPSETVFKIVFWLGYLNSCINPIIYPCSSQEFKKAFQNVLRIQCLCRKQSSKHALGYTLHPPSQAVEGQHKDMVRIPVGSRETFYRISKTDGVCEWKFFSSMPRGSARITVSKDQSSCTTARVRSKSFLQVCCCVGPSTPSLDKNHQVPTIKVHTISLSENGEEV
Procedure: as §2, §3, §1

[4] = test system: arterial blood pressure of normotensive Wistar rats; test: Influence on blood pressure in normotensive anesthetized rats after i.v. administration; type: in vivo, rat; settings: 2.0 mg/kg i.v., mean, n = 6
Procedure: In the next step, the hypotensive activity of novel compounds 1–3, 5–9, and 11–14 was determined after i.v. administration to normotensive anesthetized rats. All results are shown in Supplementary Table S1.
The normotensive rats were anesthetized with thiopental (75 mg/kg) by intraperitoneal injection (i.p.). The left carotid artery was cannulated with a polyethylene tub filled with heparin in saline to facilitate pressure measurements using a PowerLab Apparatus (ADInstruments, Sydney, Australia). Blood pressure was measured immediately before administration of the tested compounds or vehicle—time 0 min (initial blood pressure) and 60 min thereafter. Initial blood pressure before administration of the tested chemicals in all experimental groups was similar. The tested compounds were dissolved in a specific vehicle: ethyl alcohol 5% − kolliphor 5% − water 90%. All tested chemicals were administrated intravenously (i.v.) at a constant volume of 1 mL/kg after 20 min of stabilization period. The compounds were tested at a starting dose of 2 mg/kg. If the hypotensive activity was found, the dose was reduced by half. The dosing was continued until the hypotensive effects disappeared. Urapidil was used as a reference compound.
as §1

[5] = 0 min (initial, before administration)

SMILES	Ki [1] [nM]	α1B-AR Profile [2]	IC50 [2] [nM]	Selectivity Ratio α1A/α1B [2]	α1A-AR Profile [3]	IC50 [3] [nM]	Selectivity Ratio α1B/α1A [3]	Diastolic blood pressure [4, 5]	Systolic blood pressure [4, 5]	Diastolic blood pressure ([4]; 5 min)	Systolic blood pressure ([4]; 5 min)	Diastolic blood pressure ([4]; 10 min)	Systolic blood pressure ([4]; 10 min)	Diastolic blood pressure ([4]; 20 min)	Systolic blood pressure ([4]; 20 min)	Diastolic blood pressure ([4]; 30 min)	Systolic blood pressure ([4]; 30 min)	Diastolic blood pressure ([4]; 40 min)	Systolic blood pressure ([4]; 40 min)	Diastolic blood pressure ([4]; 50 min)	other results
CC1(C)C(=O)N(Cc2ccc(Cl)cc2Cl)C(=O)N1CCCCCCN1CCN(c2ccc(Cl)c(Cl)c2)CC1.Cl [Compound 4, 3-(2,4-dichlorobenzyl)-1-(6-(4-(3,4-dichlorophenyl)piperazin-1-yl)hexyl)-5,5-dimethylimidazolidine-2,4-dione hydrochloride]	255																				melting point: 154 to 156 °C
CC1(C)C(=O)N(Cc2ccc(Cl)cc2Cl)C(=O)N1CC(O)CN1CCN(c2ccccc2F)CC1 (stereo not drawn) [Compound 7]	100	Antagonist	484	2.92	Antagonist	1410	0.34	103.2	137.8	91.5	125.3	91.0	124.3	93.0	121.8	92.0	123.8	94.3	123.7	93.2	Systolic blood pressure ([4]; 50 min): 122.7; Diastolic blood pressure ([4]; 60 min): 91.3; Systolic blood pressure ([4]; 60 min): 121.5
CC1(C)C(=O)N(Cc2ccc(Cl)cc2Cl)C(=O)N1CC(O)CN1CCN(c2ccc(F)cc2)CC1 (stereo not drawn) [Compound 8]	44	Antagonist	170	4.79	Antagonist	817	0.21	96.7	129.2	87.8	121.5	89.0	120.5	88.2	120.0	86.5	120.2	84.7	119.5	85.5	Systolic blood pressure ([4]; 50 min): 120.0; Diastolic blood pressure ([4]; 60 min): 84.3; Systolic blood pressure ([4]; 60 min): 119.0
CC1(C)C(=O)N(Cc2ccc(Cl)cc2Cl)C(=O)N1CC(O)CN1CCN(c2ccc(F)cc2F)CC1 (stereo not drawn) [Compound 9]	42	Antagonist	147	1.10	Antagonist	162	0.91	100.3	135.2	98.2	133.3	93.5	127.0	90.8	125.0	93.2	128.2	92.0	128.2	90.3	Systolic blood pressure ([4]; 50 min): 127.2; Diastolic blood pressure ([4]; 60 min): 87.3; Systolic blood pressure ([4]; 60 min): 122.0
CC1(C)C(=O)N(Cc2ccc(Cl)cc2Cl)C(=O)N1CC(O)CN1CCN(c2ccc(Cl)c(Cl)c2)CC1.Cl (stereo not drawn) [Compound 10, 3-(2,4-dichlorobenzyl)-1-(3-(4-(3,4-dichlorophenyl)piperazin-1-yl)-2-hydroxypropyl)-5,5-dimethylimidazolidine-2,4-dione hydrochloride]	778																				melting point: 223 to 225 °C
CC1(C)C(=O)N(Cc2ccc(Cl)cc2Cl)C(=O)N1CC(O)CN1CCN(C(c2ccccc2)c2ccccc2)CC1 (stereo not drawn) [Compound 15]	2440																				

Further lines, with some results ahead:

Ki [1] [nM]	α1B-AR Profile [2]	IC50 [2] [nM]	Selectivity Ratio α1A/α1B [2]	α1A-AR Profile [3]	IC50 [3] [nM]	Selectivity Ratio α1B/α1A [3]	SMILES	Diastolic blood pressure [4, 5]	Systolic blood pressure [4, 5]	Diastolic blood pressure ([4]; 5 min)	Systolic blood pressure ([4]; 5 min)	Diastolic blood pressure ([4]; 10 min)	Systolic blood pressure ([4]; 10 min)	Diastolic blood pressure ([4]; 20 min)	Systolic blood pressure ([4]; 20 min)	Diastolic blood pressure ([4]; 30 min)	Systolic blood pressure ([4]; 30 min)	Diastolic blood pressure ([4]; 40 min)	Systolic blood pressure ([4]; 40 min)	Diastolic blood pressure ([4]; 50 min)	other results
	Agonist			Agonist			CNC[C@H](O)c1cccc(O)c1 [Phenylephrine, phenylephrine, reference compound]														
	Antagonist	0.48		Antagonist			CCOc1ccccc1OCCN[C@H](C)Cc1ccc(OC)c(S(N)(=O)=O)c1 [Tamsulosin, tamsulosin hydrochloride, reference compound]														
	Antagonist			Antagonist			COc1cc2nc(N3CCN(C(=O)C4CCCO4)CC3)nc(N)c2cc1OC (stereo not drawn) [Terazosin, terazosin hydrochloride, reference compound]														

From publication PMC10706087, “The Subtype Selectivity in Search of Potent Hypotensive Agents among 5,5-Dimethylhydantoin Derived α1-Adrenoceptors Antagonists” (International Journal of Molecular Sciences, 2023)
